Our source for the EC50 values is patent publication US9562053B2, “Benzo-fused heterocyclic derivatives useful as agonists of GPR120” (Janssen Pharmaceutica NV, priority 2013, dated 2017).

The assay concerns the target T1, long form of human GPR120 (Homo sapiens, UniProt Q5NUL3).
T1 construct: host or cells: PathHunter CHO-K1 GPR120 β-Arrestin Cell Line
T1 sequence (Q5NUL3 1-377 isoform Q5NUL3-1): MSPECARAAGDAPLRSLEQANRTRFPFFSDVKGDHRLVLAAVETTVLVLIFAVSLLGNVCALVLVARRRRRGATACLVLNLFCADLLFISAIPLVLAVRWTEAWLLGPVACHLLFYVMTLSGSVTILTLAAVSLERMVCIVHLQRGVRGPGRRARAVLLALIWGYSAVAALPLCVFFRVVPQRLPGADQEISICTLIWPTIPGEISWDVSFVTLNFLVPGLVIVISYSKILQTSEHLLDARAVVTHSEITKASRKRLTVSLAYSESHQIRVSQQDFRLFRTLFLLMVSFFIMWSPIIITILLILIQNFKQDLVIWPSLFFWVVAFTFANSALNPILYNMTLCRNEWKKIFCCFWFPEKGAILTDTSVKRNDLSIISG
As to the kind of experiment: Human GPR120 DiscoveRx PathHunter Beta-Arrestin Assay, Procedure β-arrestin A (3000 cells per well). The class given is cell-based. The settings on record: read-out: GPR120 B-arrestin A EC50. An outline of the steps:
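PathHunter CHO-K1 cells with long-form receptor, 3000/well, seeded overnight at 37 °C; equilibrated 60 min at 37 °C in HBSS/20 mM HEPES/0.1% BSA, pH 7.4. Compound serial dilutions (25–0.012 μM) added for 90 min at 37 °C, detection 60 min at room temperature, luminescence read; EC50 from % of positive control, Hill slope fixed at 1.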
For the compound `Cc1c(CCC(=O)O)ccc(OCc2cc(F)cc3cc(C#N)oc23)c1C` [Compound 49, 3-{4-[(2-Cyano-5-fluoro-1-benzofuran-7-yl)methoxy]-2,3-dimethylphenyl}propanoic acid], the 50% effective concentration (EC50) (usually the concentration at which the effect is half-maximal) stood at 507 nM.
In the case of `CCCc1cc(OCc2cc(OC(F)(F)F)cc3cc(CC)oc23)c(F)cc1CCC(=O)O` [Compound 50, 3-(4-{[2-Ethyl-5-(trifluoromethoxy)-1-benzofuran-7-yl]methoxy}-5-fluoro-2-propylphenyl)propanoic acid] it was 496 nM; in that of `CCc1cc2cc(OC(F)(F)F)cc(COc3ccc(CCC(=O)O)c4c3CCC4)c2o1` [Compound 52, 3-(7-{[2-Ethyl-5-(trifluoromethoxy)-1-benzofuran-7-yl]methoxy}-2,3-dihydro-1H-inden-4-yl)propanoic acid], 374 nM; in that of `CCc1cc2cc(Cl)cc(COc3ccc(CCC(=O)O)c4c3CCC4)c2o1` [Compound 54, 3-{7-[(5-Chloro-2-ethyl-1-benzofuran-7-yl)methoxy]-2,3-dihydro-1H-inden-4-yl}propanoic acid], 429 nM.
In the case of `Cc1cc2cc(OC(F)(F)F)cc(COc3ccc(CCC(=O)O)c4c3CCC4)c2o1` [Compound 55, 3-(7-{[2-Methyl-5-(trifluoromethoxy)-1-benzofuran-7-yl]methoxy}-2,3-dihydro-1H-inden-4-yl)propanoic acid] it was 73 nM; in that of `CCc1cc2cc(OC(F)F)cc(COc3ccc(CCC(=O)O)c(C)c3C)c2o1` [Compound 57, 3-(4-{[5-(Difluoromethoxy)-2-ethyl-1-benzofuran-7-yl]methoxy}-2,3-dimethylphenyl)propanoic acid], 77 nM; in that of `CC#Cc1cc(COc2ccc(CCC(=O)O)c(C)c2C)c2oc(CCC)cc2c1` [Compound 58, 3-{2,3-Dimethyl-4-[(2-propyl-5-prop-1-yn-1-yl-1-benzofuran-7-yl)methoxy]phenyl}propanoic acid], 410 nM.
For the compound `CCCc1cc2cc(Cl)cc(COc3ccc(CCC(=O)O)c(F)c3F)c2o1` [Compound 59, 3-{4-[(5-Chloro-2-propyl-1-benzofuran-7-yl)methoxy]-2,3-difluorophenyl}propanoic acid], the EC50 was determined as 146 nM.
Turning to `Cc1oc2cccc(COc3ccc(CCC(=O)O)c(C)c3C)c2c1C` [Compound 60, 3-{4-[(2,3-Dimethyl-1-benzofuran-4-yl)methoxy]-2,3-dimethylphenyl}propanoic acid], the EC50 was 706 nM.
To `CCc1cc2cc(Cl)c(CC)c(COc3ccc(CCC(=O)O)c(C)c3C)c2o1` [Compound 61, 3-{4-[(5-Chloro-2,6-diethyl-1-benzofuran-7-yl)methoxy]-2,3-dimethylphenyl}propanoic acid] belongs 190 nM.
To `CCOc1c(Cl)cc2cc(CC)oc2c1COc1ccc(CCC(=O)O)c(C)c1C` [Compound 62, 3-{4-[(5-Chloro-6-ethoxy-2-ethyl-1-benzofuran-7-yl)methoxy]-2,3-dimethylphenyl}propanoic acid] belongs 274 nM; to `CCc1cc2cc(Cl)c(OCCOC)c(COc3ccc(CCC(=O)O)c(C)c3C)c2o1` [Compound 63, 3-(4-{[5-Chloro-2-ethyl-6-(2-methoxyethoxy)-1-benzofuran-7-yl]methoxy}-2,3-dimethylphenyl)propanoic acid], 231 nM; to `CCc1cc2cc(Cl)c(OCC(F)(F)F)c(COc3ccc(CCC(=O)O)c(C)c3C)c2o1` [Compound 64, 3-(4-{[5-Chloro-2-ethyl-6-(2,2,2-trifluoroethoxy)-1-benzofuran-7-yl]methoxy}-2,3-dimethylphenyl)propanoic acid], 271 nM.
In the case of `CCc1cc2cc(Cl)c(OC(C)C)c(COc3ccc(CCC(=O)O)c(C)c3C)c2o1` [Compound 65, 3-(4-{[5-Chloro-2-ethyl-6-(1-methylethoxy)-1-benzofuran-7-yl]methoxy}-2,3-dimethylphenyl)propanoic acid] it was 240 nM; in that of `CCOc1ccc2cc(CC)oc2c1COc1ccc(CCC(=O)O)c(C)c1C` [Compound 66, 3-{4-[(6-Ethoxy-2-ethyl-1-benzofuran-7-yl)methoxy]-2,3-dimethylphenyl}propanoic acid], 1410 nM; in that of `CCc1cc2cc(Cl)c(OCC(C)C)c(COc3ccc(CCC(=O)O)c(C)c3C)c2o1` [Compound 67, 3-(4-{[5-Chloro-2-ethyl-6-(2-methylpropoxy)-1-benzofuran-7-yl]methoxy}-2,3-dimethylphenyl)propanoic acid], 221 nM.
With `CCc1cc2cc(Cl)c(OC(F)F)c(COc3ccc(CCC(=O)O)c(C)c3C)c2o1` [Compound 69, 3-(4-{[5-Chloro-6-(difluoromethoxy)-2-ethyl-1-benzofuran-7-yl]methoxy}-2,3-dimethylphenyl)propanoic acid], the EC50 was 223 nM.
Consider `CCc1cc2ccc(OC(F)F)c(COc3ccc(CCC(=O)O)c(C)c3C)c2o1` [Compound 70, 3-(4-{[6-(Difluoromethoxy)-2-ethyl-1-benzofuran-7-yl]methoxy}-2,3-dimethylphenyl)propanoic acid], for which the EC50 is 2500 nM.
To `Cc1cc2c(F)c(OC(F)(F)F)c(F)c(COc3ccc(CCC(=O)O)c(C)c3C)c2o1` [Compound 71, 3-(4-{[4,6-Difluoro-2-methyl-5-(trifluoromethoxy)-1-benzofuran-7-yl]methoxy}-2,3-dimethylphenyl)propanoic acid] belongs 45 nM; to `Cc1cc2c(F)c(OC(F)(F)F)c(F)c(COc3ccc(CCC(=O)O)c(F)c3F)c2o1` [Compound 75, 3-(4-{[4,6-Difluoro-2-methyl-5-(trifluoromethoxy)-1-benzofuran-7-yl]methoxy}-2,3-difluorophenyl)propanoic acid], 394 nM; to `Cc1cc2cc(OC(F)F)cc(COc3ccc(CCC(=O)O)c(C)c3C)c2o1` [Compound 76, 3-(4-{[5-(Difluoromethoxy)-2-methyl-1-benzofuran-7-yl]methoxy}-2,3-dimethylphenyl)propanoic acid], 144 nM.
To `CCCc1cc2cc(OC(F)F)cc(COc3ccc(CCC(=O)O)c(C)c3C)c2o1` [Compound 77, 3-(4-{[5-(Difluoromethoxy)-2-propyl-1-benzofuran-7-yl]methoxy}-2,3-dimethylphenyl)propanoic acid] belongs 176 nM; to `Cc1cc2cc(Cl)cc(COc3ccc(CCC(=O)O)c(C)c3C)c2o1` [Compound 78, 3-{4-[(5-Chloro-2-methyl-1-benzofuran-7-yl)methoxy]-2,3-dimethylphenyl}propanoic acid], 121 nM.
In the case of `Cc1oc2cc(Cl)cc(COc3ccc(CCC(=O)O)c(C)c3C)c2c1C` [Compound 80, 3-{4-[(6-Chloro-2,3-dimethyl-1-benzofuran-4-yl)methoxy]-2,3-dimethylphenyl}propanoic acid] it was 249 nM; in that of `Cc1cc2c(COc3ccc(CCC(=O)O)c(C)c3C)cc(Cl)cc2o1` [Compound 81, 3-{4-[(6-Chloro-2-methyl-1-benzofuran-4-yl)methoxy]-2,3-dimethylphenyl}propanoic acid], 817 nM; in that of `Cc1cc2cc3c(c(COc4ccc(CCC(=O)O)c(C)c4C)c2o1)OCO3` [Compound 82, 3-{2,3-Dimethyl-4-[(6-methylfuro[2,3-f][1,3]benzodioxol-4-yl)methoxy]phenyl}propanoic acid], 851 nM.
As to `CC#Cc1cc(COc2ccc(CCC(=O)O)c(C)c2C)c2oc(C)cc2c1` [Compound 83, 3-{2,3-Dimethyl-4-[(2-methyl-5-prop-1-yn-1-yl-1-benzofuran-7-yl)methoxy]phenyl}propanoic acid], the EC50 was determined as 440 nM.
In the case of `Cc1nc2cc(Cl)cc(COc3ccc(CCC(=O)O)c(C)c3C)c2o1` [Compound 84, 3-{4-[(5-Chloro-2-methyl-1,3-benzoxazol-7-yl)methoxy]-2,3-dimethylphenyl}propanoic acid] it was 434 nM; in that of `Cc1cc2cc(Cl)c(C)c(COc3ccc(CCC(=O)O)c(C)c3C)c2o1` [Compound 85, 3-{4-[(5-Chloro-2,6-dimethyl-1-benzofuran-7-yl)methoxy]-2,3-dimethylphenyl}propanoic acid], 238 nM; in that of `Cc1cc2cc(Cl)c(C)c(COc3c(F)cc(CCC(=O)O)cc3F)c2o1` [Compound 86, 3-{4-[(5-Chloro-2,6-dimethyl-1-benzofuran-7-yl)methoxy]-3,5-difluorophenyl}propanoic acid], 460 nM.
In the case of `Cc1c(CCC(=O)O)ccc(OCc2cc(Cl)cc3cc(CC(F)F)oc23)c1C` [Compound 87, 3-(4-{[5-Chloro-2-(2,2-difluoroethyl)-1-benzofuran-7-yl]methoxy}-2,3-dimethylphenyl)propanoic acid] it was 409 nM; in that of `Cc1cc2cc3c(c(COc4ccc(CCC(=O)O)c(C)c4C)c2o1)OC(F)(F)O3` [Compound 89, 3-{4-[(2,2-Difluoro-6-methylfuro[2,3-f][1,3]benzodioxol-4-yl)methoxy]-2,3-dimethylphenyl}propanoic acid], 119 nM.
To `Cc1cc2cc3c(c(COc4ccc(CCC(=O)O)c(C)c4C)c2o1)OCCO3` [Compound 90, 3-{2,3-Dimethyl-4-[(7-methyl-2,3-dihydrofuro[2,3-g][1,4]benzodioxin-5-yl)methoxy]phenyl}propanoic acid] belongs 532 nM.
